Consider three substances from US20230050846A1, “TREATMENT OF HEPATIC AND CARDIOVASCULAR DISORDERS” (LIFESEARCH, priority 2019, published 2023).

Assay [1] deals with HUVEC cells. The experiment in a line: Endothelial nitric oxide (NO) production, DAF-FM-DA probe. The settings on record: apoA-I; abolished by IF1. The class given is cell-based, human. On the procedure: Nitric oxide (NO) was detected using a DAF-FM-DA probe (D2321, Sigma-Aldrich) which forms fluorescent benzotriazole when it reacts with NO. HUVEC cells (PromoCell #C-12203) were seeded in 96-well plates (10,000 cells per well) and cultured in endothelial cell basal medium 2 (PromoCell #C-22211) supplemented with GM2 supplement Mix (PromoCell #C-39211), until 80-90% confluence. The medium was then replaced with M-199 without serum for 4 h, and the cells were incubated for 45 min with DAF-FM-DA (5 μM) diluted in PBS. Cells were treated with increasing concentrations of the different peptides or apoA-I (10 μM) purified from human plasma or histamine (1 mM) as positive control. In another set of experiments, cells were incubated with inhibitors (IF1, 1 μM) for 10 min before treatment with peptides or apoA-I. The fluorescence was recorded for 30 min (λex=495 nm, λem=515 nm) with a Tecan Flash Multimode Reader (Thermo Fisher Scientific). Fluorescence for each condition was compared with the value obtained in untreated cells, and results were expressed as the fold change as compared with the basal condition (untreated cells).

The target in assay [2] is T1, ecto-F1-ATPase (HepG2 cells) (Homo sapiens, UniProt P06576).
T1 construct: host or cells: HepG2
As to the kind of experiment: ecto-F1-ATPase activity: extracellular ADP content, luciferin-luciferase assay. Format: cell-based. The settings on record: HepG2, 5 min, apoA-I 10 μg/mL; effect blunted by IF1. On the procedure:
The human hepatocyte cell line HepG2 was obtained from the American Type Culture Collection (#HB-8065). HepG2 were cultured in Dulbecco's Modified Eagle's Medium (DMEM)—high glucose (D0822, Sigma-Aldrich) supplemented with 10% fetal bovine serum (10270098, Life technologies), 1% Penicillin-Streptomycin solution (P0781, Sigma-Aldrich). HepG2 cells were seeded on 24-well plates at 75,000 cells/well (Day 0). After 24 hours of growing, cells were serum starved for 24 h in order to synchronize cell cycles (Day 1) and then replaced additional 24 h in complete cell growth medium (Day 2). On day 3, cells were washed and equilibrated in fresh DMEM—high glucose without red phenol for 1 h (D1145, Sigma-Aldrich).
The cells were then treated 5 min with different concentration of peptide of formula (I) (0.1 to 5 μM), the peptide of formula (II) (1 μM), SCR (1 μM), SCR-K-16 (1 μM) or apoA-I (10 μg/mL) purified from human plasma.
Specific ecto-F1-ATPase activation was assessed in the presence of IF1 protein (1 μM), a natural inhibitor of F1-ATPase that interacts with the β-subunit to inhibit the ATP hydrolysis activity [5].
Supernatants were then collected and centrifuged (10,000 g, 5 min, 4° C.) and processed for ADP and ATP measurement. For ADP measurement, ADP was converted into ATP in 150 mM NaCl, 5 mM KCl, 2 mM MgCl2, pH 7.5 buffer containing 0.5 mM phosphoenolpyruvate (PEP) and pyruvate kinase (PK, 6 U per point for 15 min at 37° C.). For ATP measurement, 100 μl of sample was analyzed using the ATP bioluminescence assay kit CLS II (Roche Diagnostics). Samples were added to the ATP assay mixture and luminescence was measured in a microplate reader Infinite F500 (Tecan, Switzerland) for 1000 ms. The ATP standard curve was produced in the same medium as the samples and in the 10^−5 to 10^−10 M concentration range. The ADP concentration was then calculated as the ATP concentration following ADP conversion minus the basal ATP concentration. Data are expressed as nanomoles of ADP produced.

Assay [3] deals with HepG2 cells. The experiment in a line: HDL endocytosis assay in hepatocytes. Format: cell-based, human. To be noted: for effect on HDL endocytosis: 1 μM, HDL-Alexa568 50 μg/mL, 25 min, abolished by IF1 1 μM. On the procedure:
HepG2 cells were seeded on 96-well plates at 50,000 cells/well. HDL3 (d 1.12-1.21) were isolated from plasma of healthy human donors and referred to as HDL. HDL was fluorescently labeled with AlexaFluor®568 dye (A10238, Thermofisher Scientific) according the instructions of manufacturer. 1 h30 before the assay, the cells were serum starved for 1 h30 in order to stabilize nucleotide secretion. Cells were incubated with inhibitors (H49K, 1 μM) for 10 min before treatment with the different peptides (1 μM) or apoA-I (10 μg/ml) purified from human plasma. 5 min after peptide treatment, endocytosis was initiated by 50 μg/mL of AlexaFluor568®-labelled HDL. The same experiment was performed with a […] excess of unlabelled HDL (2.5 mg/mL) to determine the nonspecific fluorescence signal. After 25 min at 37° C., cells were then washed in serum-free DMEM and extracellular membrane-bound HDL was disassociated by incubating cells at 4° C. in serum-free DMEM for 90 min. Following washes, cells were lysate in NaOH 0.1M SDS 1% during 2 h, lysates were transferred in a black 96-wells plate and fluorescence was recorded at 568 nm (Varioscan flash). Fluorescence for each condition was substrate with the value obtained in unlabelled HDL condition, and results were expressed as the fold change as compared with the basal condition (untreated cells).

Assay [4] deals with T2, human F1Fo-ATPase (Homo sapiens, UniProt P06576).
T2 construct: Human F1Fo-ATPase was purified from HepG2 cells by immunocapture; endogenous in cells; host or cells: HepG2 cells; complex isolated by immunocapture with anti-ATP synthase antibody 12F4AD8AF8 (#ab109867, Abcam)
As to the kind of experiment: F1-ATPase activity assay (NADH-coupled, purified enzyme). The class given is biochemical. To be noted: 1 μM. The source says: The mature human IF1 protein (SEQ ID NO: 5) was chemically synthesized by GenScript (Piscataway, N.J., USA) at >80% purity. The peptides derived from the mature human IF1 sequence (IF1-1-60, IF1-10-56, IF1-10-47) were produced by BachemAG (Bubendorf, Switzerland) with >90% purity.
Human F1Fo-ATPase was purified from HepG2 cells by immunocapture using mouse monoclonal anti-ATP synthase antibody (12F4AD8AF8, #ab109867, Abcam) according to manufacturer's instructions.
Measurement of F1-ATPase activity was assayed as previously described. Briefly, 10 μg of F1Fo-ATPase was prepared into 50 μL of activity assay buffer (10 mM HEPES, 150 mM NaCl, 5 mM KCl, 5 mM MgCl2, 0.5 mM phosphoenolpyruvate, 250 μM NADH, 100 μM ATP, 20 U lactate dehydrogenase, 120 U pyruvate kinase). The mixture was incubated at 37° C. for 30 min. Then the F1-ATPase activity was measured in a 96-well microplate by adding 5 μL of the mixture (1 μg of F1Fo-ATPase per point) per well to 200 μL of activity assay buffer at 37° C., and by adding 5 μL of buffer with or without peptide (1 μM each). The reduction in the absorbance of NADH was measured at 340 nm for 5 min with a Varioskan™ Flash Multimode Reader (Thermo Fisher Scientific). A slope was calculated for each well and the results expressed as a percentage of the control slope.

Regarding “apoA-I: Apolipoprotein A-I purified from human plasma, known F1-ATPase activator, positive control [reference compound]”, in assay [1], the “NO production by endothelial cells” value is recorded as “stimulated”. The “extracellular ADP concentration” value in assay [2] is listed as “increased”. Moreover, in assay [3] (apoA-I 10 μg/mL, abolished by IF1), the “stimulation of HDL endocytosis compared to non-stimulated cells” value was “about 45%”.

As for “CH3CO-[SEQ ID NO: 2]-NH2 (Ac-GEAKSYAEKGEARGERGTKGEFRIFKREATD-NH2) [SCR, reference compound]”, the “effect on HDL endocytosis” value in assay [3] was “no effect”. Further, the “stimulation of F1-ATPase activity” value in assay [4] was “no effect”.

As for “CH3CO-[SEQ ID NO: 2]-K-[palmitoyl]-NH2 (Ac-GEAKSYAEKGEARGERGTKGEFRIFKREATD-{K(palmitoyl)-NH2}) [SCR-K-C16, palmitoylated scramble peptide, negative control, reference compound]”, the “effect on HDL endocytosis” value in assay [3] is “no effect”. The “stimulation of F1-ATPase activity” value in assay [4] is on record as “no effect”.
